For 7 molecules, IC50, DC50 and Dmax results are on record in US12139492B2 (Endotarget Inc., priority 2021, dated 2024).

One assay relates to Mino cells. The experiment in a line: Antiproliferative effect, MTS cell viability assay, Mino cells. In kind it is cell-based. The note with it: Homo sapiens, MINO, Mino mantle cell lymphoma cells; read-out: IC50 (anti-proliferation) Mino cells. In outline:
(§1)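 Mino and JeKo-1 mantle B-cell lymphoma lines were exposed to compound at 0, 0.001, 0.01, 0.1, 1 and 10 μM for 72 h. Viability was read by MTS reduction to formazan, measured as absorbance at 490 nm.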

The subject of a further assay is JeKo-1 cells. Nature of the assay: Antiproliferative effect, MTS cell viability assay, JeKo-1 cells. Type of assay: cell-based. The note with it: Homo sapiens; JeKo-1 mantle cell lymphoma cells; read-out: IC50 (anti-proliferation) JeKO-1 cells. An outline of the steps: as §1
On the technique in general: Tetrazolium assays rely on reduction of a dye to a coloured formazan, in cell work by metabolically active cells.

Another assay deals with BTK (Homo sapiens, UniProt Q06187). Nature of the assay: Degradation of BTK protein in Namalwa cells (Western blot; DC50, Dmax). Conditions: for DC50: read-out: DC50 (BTK degradation), concentration giving 50% reduction of BTK expression level, cell line not given; for Dmax: read-out: Dmax (BTK degradation). Background: Immunoblotting shows a protein as a band on a membrane.
Chain of BTK (Q06187 whole entry): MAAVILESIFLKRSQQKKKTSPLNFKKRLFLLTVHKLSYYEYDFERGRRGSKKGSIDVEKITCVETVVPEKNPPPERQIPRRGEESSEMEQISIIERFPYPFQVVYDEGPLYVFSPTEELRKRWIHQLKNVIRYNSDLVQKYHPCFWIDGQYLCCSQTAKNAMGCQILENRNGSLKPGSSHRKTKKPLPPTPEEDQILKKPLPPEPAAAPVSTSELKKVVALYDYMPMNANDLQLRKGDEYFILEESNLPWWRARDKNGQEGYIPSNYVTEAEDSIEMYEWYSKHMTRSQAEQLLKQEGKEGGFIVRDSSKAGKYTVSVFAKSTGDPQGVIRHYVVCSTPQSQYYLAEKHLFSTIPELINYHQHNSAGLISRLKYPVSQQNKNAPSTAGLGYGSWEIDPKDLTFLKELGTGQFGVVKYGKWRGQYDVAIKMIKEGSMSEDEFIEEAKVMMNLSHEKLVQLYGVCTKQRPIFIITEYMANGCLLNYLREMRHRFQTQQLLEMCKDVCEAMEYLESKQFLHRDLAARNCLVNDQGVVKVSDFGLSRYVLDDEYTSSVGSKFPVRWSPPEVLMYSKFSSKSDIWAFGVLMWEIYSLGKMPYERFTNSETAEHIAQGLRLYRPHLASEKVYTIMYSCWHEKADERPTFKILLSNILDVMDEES

The DC50 is the concentration giving 50% degradation. As a reminder, the Dmax is the greatest extent of degradation seen. Regarding `Nc1ncnc2c1c(-c1ccc(Oc3ccccc3)cc1)nn2[C@@H]1CCCN(C(=O)CCCN2CCN(c3ccc4c(c3)C(=O)N(C3CCC(=O)NC3=O)C4=O)CC2)C1` (stereo partly drawn) [Compound 525, 5-(4-(4-((R)-3-(4-amino-3-(4-phenoxyphenyl)-1H-pyrazolo[3,4-d]pyrimidin-1-yl)piperidin-1-yl)-4-oxobutyl)piperazin-1-yl)-2-(2,6-dioxopiperidin-3-yl)isoindoline-1,3-dione], the IC50 in the assay with Mino cells lay within 1000 to 10000 nM. Also, in the assay with JeKo-1 cells, the IC50 was less than 1000 nM. For the same molecule, on BTK, the DC50 is less than 10 nM and the Dmax is greater than 90%.
As for `Nc1ncnc2c1c(-c1ccc(Oc3ccccc3)cc1)nn2[C@@H]1CCCN(CCNC(=O)N2CCN(c3ccc4c(c3)C(=O)N(C3CCC(=O)NC3=O)C4=O)CC2)C1` (stereo partly drawn) [Compound 526, N-(2-((R)-3-(4-amino-3-(4-phenoxyphenyl)-1H-pyrazolo[3,4-d]pyrimidin-1-yl)piperidin-1-yl)ethyl)-4-(2-(2,6-dioxopiperidin-3-yl)-1,3-dioxoisoindolin-5-yl)piperazine-1-carboxamide], the IC50 in the assay with Mino cells and with JeKo-1 cells was 1000 to 10000 nM each time. In addition, the DC50 at BTK is less than 10 nM. In addition, the greatest degradation seen (Dmax) on BTK is greater than 90%.
Take `Nc1ncnc2c1c(-c1ccc(Oc3ccccc3)cc1)nn2[C@@H]1CCCN(CCNC(=O)C2CCN(c3ccc4c(c3)C(=O)N(C3CCC(=O)NC3=O)C4=O)CC2)C1` (stereo partly drawn) [Compound 527, N-(2-((R)-3-(4-amino-3-(4-phenoxyphenyl)-1H-pyrazolo[3,4-d]pyrimidin-1-yl)piperidin-1-yl)ethyl)-1-(2-(2,6-dioxopiperidin-3-yl)-1,3-dioxoisoindolin-5-yl)piperidine-4-carboxamide]: the IC50 in the assay on Mino cells was less than 1000 nM. Also, the IC50 with JeKo-1 cells is 1000 to 10000 nM. At BTK, the DC50 was in the range of 10 to 50 nM and the Dmax is greater than 75%.
With `Nc1ncnc2c1c(-c1ccc(Oc3ccccc3)cc1)nn2[C@@H]1CCCN(C2CCN(CC3CCN(c4ccc(N5CCC(=O)NC5=O)cc4)CC3)CC2)C1` [Compound 528, (R)-1-(4-(4-((3-(4-amino-3-(4-phenoxyphenyl)-1H-pyrazolo[3,4-d]pyrimidin-1-yl)-[1,4′-bipiperidin]-1′-yl)methyl)piperidin-1-yl)phenyl)dihydropyrimidine-2,4(1H,3H)-dione], the IC50 with Mino cells is 1000 to 10000 nM. In addition, in the assay on JeKo-1 cells, the IC50 was in the range of 1000 to 10000 nM. For the same molecule, at BTK, the DC50 fell in the range of 10 to 50 nM and the Dmax was greater than 75%.
As for `Nc1ncnc2c1c(-c1ccc(Oc3ccccc3)cc1)nn2[C@@H]1CCCN(CC2CCN(c3ccc(N4CCC(=O)NC4=O)cc3)CC2)C1` [Compound 529, (R)-1-(4-(4-((3-(4-amino-3-(4-phenoxyphenyl)-1H-pyrazolo[3,4-d]pyrimidin-1-yl)piperidin-1-yl)methyl)piperidin-1-yl)phenyl)dihydropyrimidine-2,4(1H,3H)-dione], in the assay with Mino cells, the IC50 is greater than 10000 nM. In addition, the IC50 in the assay on JeKo-1 cells was greater than 10000 nM. Moreover, at BTK, the DC50 lay in the range of 10 to 50 nM and the Dmax was greater than 50%.
For the molecule `Nc1ncnc2c1c(-c1ccc(Oc3ccccc3)cc1)nn2C1CCN(CC2CC(N3CCN(c4ccc5c(c4)C(=O)N(C4CCC(=O)NC4=O)C5=O)CC3)C2)CC1` (stereo not shown) [Compound 530, 5-(4-(3-((4-(4-amino-3-(4-phenoxyphenyl)-1H-pyrazolo[3,4-d]pyrimidin-1-yl)piperidin-1-yl)methyl)cyclobutyl)piperazin-1-yl)-2-(2,6-dioxopiperidin-3-yl)isoindoline-1,3-dione], the IC50 in the assay on Mino cells and in the assay with JeKo-1 cells was less than 1000 nM in each case. Moreover, the DC50 at BTK is less than 10 nM. The Dmax at BTK is greater than 90%.
For `Nc1ncnc2c1c(-c1ccc(Oc3ccccc3)cc1)nn2C1CCN(CC2CC(N3CCN(c4ccc5c(c4)CN(C4CCC(=O)NC4=O)C5=O)CC3)C2)CC1` (stereo not shown) [Compound 531, 3-(5-(4-(3-((4-(4-amino-3-(4-phenoxyphenyl)-1H-pyrazolo[3,4-d]pyrimidin-1-yl)piperidin-1-yl)methyl)cyclobutyl)piperazin-1-yl)-1-oxoisoindolin-2-yl)piperidine-2,6-dione], in the assay with Mino cells, the IC50 is less than 1000 nM. For the same molecule, the IC50 in the assay on JeKo-1 cells was less than 1000 nM. Also, on BTK, the DC50 is less than 10 nM and the Dmax is greater than 90%.
